The test system of this experiment is MV4-11. Description: Combined use under low protein content, MTT assay after 48 hours. The experiment is classed as cell-based, human. Particulars: MV4-11, low protein content.

Where a name gives a salt, the structure may show the parent alone. Read-outs that look alike come from different tables or passages of the source.

What is called IC50 is the concentration at which inhibition is half-maximal. Take venetoclax: the 50% inhibitory concentration (IC50) (read-out: IC50 value of venetoclax alone) came to 0.0968 nM.

As to `N#C[C@H]1[C@H](O)[C@@H](CO)O[C@H]1n1ccc(N)nc1=O` [DFP-10917, 4-amino-1-(2-cyano-2-deoxy-β-D-arabinofuranosyl)-2(1H)-pyrimidinone monohydrochloride], the half-inhibitory concentration (IC50) (Homo sapiens, read-out: IC50 value of DFP-10917 alone) amounted to 1530 nM.

These data come from US11957701B2, “Therapy and new therapeutic agent for blood cancer” (Delta-Fly Pharma, Inc., priority 2020, dated 2024).
